# In US10329270B2, “Heteroaryl compounds as BTK inhibitors and uses thereof” (Merck Patent GmbH, priority 2013, dated 2019):
# Molecular target: T1, full-length human BTK (Homo sapiens, UniProt Q06187)
# T1 construct: 2.5× stocks of full-length human BTK (08-080); purchased CarnaBio USA, Inc., Natick, Mass; 08-080
# Test: Assay A: BTK IC50 Enzyme Assay (microfluidic off-chip mobility shift kinase assay)
# Format: biochemical
# Conditions: full-length human BTK, kinKDR peptide substrate, incubated 90 min at 27 C; read-out: Assay A (Time Dependent BTK Enzyme Assay IC50)
# In short: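 Off-chip microfluidic mobility shift assay with full-length human BTK; phosphorylated and unphosphorylated peptide substrate were separated by charge/mass on a LabChip 3000.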
# T1 sequence (Q06187 whole entry): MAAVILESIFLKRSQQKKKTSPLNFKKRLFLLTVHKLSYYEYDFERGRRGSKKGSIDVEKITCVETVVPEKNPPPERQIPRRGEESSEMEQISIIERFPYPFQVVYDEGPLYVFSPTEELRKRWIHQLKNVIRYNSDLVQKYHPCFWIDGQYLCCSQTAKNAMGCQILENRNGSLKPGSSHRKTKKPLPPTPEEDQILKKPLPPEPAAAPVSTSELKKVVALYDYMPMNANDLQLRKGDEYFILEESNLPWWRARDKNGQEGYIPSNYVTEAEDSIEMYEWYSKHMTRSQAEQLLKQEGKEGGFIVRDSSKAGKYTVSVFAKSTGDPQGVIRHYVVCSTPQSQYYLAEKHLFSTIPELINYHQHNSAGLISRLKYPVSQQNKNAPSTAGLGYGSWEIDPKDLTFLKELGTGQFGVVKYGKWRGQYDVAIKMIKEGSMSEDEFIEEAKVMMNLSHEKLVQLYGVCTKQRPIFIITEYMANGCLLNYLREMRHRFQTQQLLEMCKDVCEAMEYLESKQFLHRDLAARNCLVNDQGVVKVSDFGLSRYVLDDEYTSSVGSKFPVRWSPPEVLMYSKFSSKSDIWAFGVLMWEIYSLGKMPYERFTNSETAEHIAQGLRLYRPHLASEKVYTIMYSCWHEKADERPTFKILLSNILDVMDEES
row,SMILES,IC50
1,"CN(C)C/C=C/C(=O)N[C@H]1CCN(c2ncc(C(N)=O)c(N)n2)C1 [Compound 145, 4-Amino-2-[(S)-3-((E)-4-dimethylamino-but-2-enoylamino)-pyrrolidin-1-yl]-pyrimidine-5-carboxylic acid amide]",1 to 5 µM
2,"C=CC(=O)N1CC=C(c2cncc(C(N)=O)c2Nc2ccc(N3C[C@@H](C)O[C@@H](C)C3)nc2)CC1 [Compound 168, 1′-Acryloyl-4-[6-(cis-2,6-dimethyl-morpholin-4-yl)-pyridin-3-ylamino]-1′,2′,3′,6′-tetrahydro-[3,4′]bipyridinyl-5-carboxylic acid amide]",1 to 5 µM
3,C=CC(=O)N1CCn2ncc(-c3cnc(C(N)=O)nc3)c2C1 [Compound 154],> 5 µM
4,"C=CC(=O)N1CCC(Nc2cnc(Oc3ccc(Oc4cccc(F)c4)cc3)c(C(N)=O)c2)C1 (stereo not shown) [Compound 253, 5-(1-Acryloyl-pyrrolidin-3-ylamino)-2-[4-(3-fluoro-phenoxy)-phenoxy]-nicotinamide]",< 0.1 µM
5,"C=CC(=O)N1CCCC(c2cnc(Oc3ccc(Oc4ccccc4)cc3)c(C(N)=O)c2)C1 (stereo not shown) [Compound 126, 1′-Acryloyl-6-(4-phenoxy-phenoxy)-1′,2′,3′,4′,5′,6′-hexahydro-[3,3′]bipyridinyl-5-carboxylic acid amide]",< 0.1 µM
6,"N#CN1CCC(Nc2cnc(Oc3ccc(Oc4ccccc4)cc3)c(C(N)=O)c2)CC1 [Compound 246, 5-[(1-cyanopiperidin-4-yl)amino]-2-(4-phenoxyphenoxy)pyridine-3-carboxamide]",> 5 µM
7,C=CC(=O)N1CCN(c2ccc(C(N)=O)c(Nc3cccnc3)n2)CC1 [Compound 43],< 0.1 µM
8,"C=CC(=O)N1CCC(O)(c2ccc(C(N)=O)c(Oc3ccc(Oc4ccccc4)cc3)n2)C(O)C1 (stereo not shown) [Compound 77, 1′-Acryloyl-3′,4′-dihydroxy-6-(4-phenoxy-phenoxy)-1′,2′,3′,4′,5′,6′-hexahydro-[2,4′]bipyridinyl-5-carboxylic acid amide]",< 0.1 µM
9,"C=CC(=O)NC1CCCN(c2cnc(Oc3ccc(Oc4cccc(F)c4)cc3)c(C(N)=O)c2)C1 (stereo not shown) [Compound 220, 3-Acryloylamino-6′-[4-(3-fluoro-phenoxy)-phenoxy]-3,4,5,6-tetrahydro-2H-[1,3′]bipyridinyl-5′-carboxylic acid amide]",1 to 5 µM
10,"C=CC(=O)NC1CCN(c2cnc(Oc3ccc(Oc4cccc(F)c4)cc3)c(C(N)=O)c2)C1 (stereo not shown) [Compound 219, 5-(3-Acryloylamino-pyrrolidin-1-yl)-2-[4-(3-fluoro-phenoxy)-phenoxy]-nicotinamide]",0.1 to 1 µM
11,"C=CC(=O)N1CCC(c2ccc(C(N)=O)c(Nc3cccnc3)n2)CC1 [Compound 53, 1′-Acryloyl-6-(pyridin-3-ylamino)-1′,2′,3′,4′,5′,6′-hexahydro-[2,4′]bipyridinyl-5-carboxylic acid amide]",< 0.1 µM
12,"C=CC(=O)N[C@H]1CCN(c2cc(Oc3ccc(Oc4cccc(C#N)c4)cc3)c(C(N)=O)cn2)C1 [Compound 113, (S)-6-(3-acrylamidopyrrolidin-1-yl)-4-(4-(3-cyanophenoxy)phenoxy)nicotinamide]",0.1 to 1 µM
13,"C=CC(=O)N[C@H]1CCN(c2cc(Oc3ccc(OCc4ccccc4)cc3)c(C(N)=O)cn2)C1 [Compound 112, (S)-6-(3-acrylamidopyrrolidin-1-yl)-4-(4-(benzyloxy)phenoxy)nicotinamide]",0.1 to 1 µM
14,"C=CC(=O)N[C@@H]1CCCN(c2ccc(C(N)=O)c(Nc3ccc(CCN4CCCC4)cc3)n2)C1 [Compound 56, (R)-3-Acryloylamino-6′-[4-(2-pyrrolidin-1-yl-ethyl)-phenylamino]-3,4,5,6-tetrahydro-2H-[1,2′]bipyridinyl-5′-carboxylic acid amide]",< 0.1 µM
15,"C=CC(=O)N[C@H]1CCN(c2nc(Cl)ccc2C(N)=O)C1 [Compound 163, 2-((S)-3-Acryloylamino-pyrrolidin-1-yl)-6-chloro-nicotinamide]",> 5 µM
16,"C=CC(=O)N[C@H]1CCN(c2ccc(C(N)=O)c(Nc3ccc(N4CC(C)OC(C)C4)cc3)n2)C1 (stereo partly drawn) [Compound 33, 6-((S)-3-Acryloylamino-pyrrolidin-1-yl)-2-[4-(2,6-dimethyl-morpholin-4-yl)-phenylamino]-nicotinamide]",< 0.1 µM
17,"N#CNC(=O)N1CCN(c2ccc(C(N)=O)c(Oc3ccc(Oc4ccccc4)cc3)n2)CC1 [Compound 237, 4-(5-carbamoyl-6-(4-phenoxyphenoxy)pyridin-2-yl)-N-cyanopiperazine-1-carboxamide]",1 to 5 µM
18,"C=CC(=O)NCc1ccc(-c2ccc(C(N)=O)c(Oc3ccc(Oc4ccccc4)cc3)n2)s1 [Compound 160, 6-(5-(acrylamidomethyl)thiophen-2-yl)-2-(4-phenoxyphenoxy)nicotinamide]",> 5 µM
19,"N#CN1CCC(Nc2cnc(Oc3ccc(Oc4ccc(F)cc4F)cc3)c(C(N)=O)c2)C1 (stereo not shown) [Compound 250, 5-[(1-cyanopyrrolidin-3-yl)amino]-2-[4-(2,4-difluorophenoxy)phenoxy]pyridine-3-carboxamide]",1 to 5 µM

row,SMILES,IC50
1,"C=CC(=O)N[C@H]1CCN(c2ccc(C(N)=O)c(Nc3cncc(F)c3)n2)C1 [Compound 51, 6-((S)-3-Acryloylamino-pyrrolidin-1-yl)-2-(5-fluoro-pyridin-3-ylamino)-nicotinamide]",< 0.1 µM
2,"C/C=C/C(=O)N1CCCC(Nc2cnc(Oc3ccc(Oc4cccc(F)c4)cc3)c(C(N)=O)c2)C1 (stereo not shown) [Compound 231, (E)-5-((1-(but-2-enoyl)piperidin-3-yl)amino)-2-(4-(3-fluorophenoxy)phenoxy)nicotinamide]",1 to 5 µM
3,"N#CN1CCC(Nc2cnc(Oc3ccc(Oc4ccccc4)cc3)c(C(N)=O)c2)C1 (stereo not shown) [Compound 243, 5-[(1-cyanopyrrolidin-3-yl)amino]-2-(4-phenoxyphenoxy)pyridine-3-carboxamide]",0.1 to 1 µM
4,"C=CC(=O)N[C@@H]1CCCN(c2nc(Nc3ccc(N4CCN(C)CC4)cc3)c(C(N)=O)cc2F)C1 [Compound 226, (R)-3-Acryloylamino-3′-fluoro-6′-[4-(4-methyl-piperazin-1-yl)-phenylamino]-3,4,5,6-tetrahydro-2H-[1,2′]bipyridinyl-5′-carboxylic acid amide]",< 0.1 µM
5,"C=CC(=O)N[C@H]1CCN(c2ccc(C(N)=O)c(NC3CCN(C)CC3)n2)C1 [Compound 62, 6-((S)-3-Acryloylamino-pyrrolidin-1-yl)-2-(1-methyl-piperidin-4-ylamino)-nicotinamide]",> 5 µM
6,"C=CC(=O)Nc1ccc(-c2ccc(C(N)=O)c(Oc3ccc(Oc4ccccc4)cc3)n2)cc1 [Compound 159, 6-(4-acrylamidophenyl)-2-(4-phenoxyphenoxy)nicotinamide]",> 5 µM
7,"C/C=C/C(=O)NC1CCN(c2cnc(Oc3ccc(Oc4cccc(F)c4)cc3)c(C(N)=O)c2)C1 (stereo not shown) [Compound 221, 5-[3-((E)-But-2-enoylamino)-pyrrolidin-1-yl]-2-[4-(3-fluoro-phenoxy)-phenoxy]-nicotinamide]",> 5 µM
8,"C=CC(=O)N[C@H]1CCN(c2ccc(C(N)=O)c(Oc3ccc(C(=O)N4CCOCC4)cc3)n2)C1 [Compound 101, 6-((S)-3-Acryloylamino-pyrrolidin-1-yl)-2-[4-(morpholine-4-carbonyl)-phenoxy]-nicotinamide]",> 5 µM
9,"N#CN1CCC[C@@H](c2cnc(Oc3ccc(Oc4ccc(F)cc4F)cc3)c(C(N)=O)c2)C1 [Compound 249, 5-[(3S)-1-cyanopiperidin-3-yl]-2-[4-(2,4-difluorophenoxy)phenoxy]pyridine-3-carboxamide]",> 5 µM
10,"C=CC(=O)N1CC2(CC(Nc3ncc(C(N)=O)c(Oc4ccc(Oc5ccccc5)cc4)n3)C2)C1 [Compound 183, 2-((2-acryloyl-2-azaspiro[3.3]heptan-6-yl)amino)-4-(4-phenoxyphenoxy)pyrimidine-5-carboxamide]",0.1 to 1 µM
11,"C=CC(=O)N[C@H]1CCN(c2cc(Oc3ccc(Oc4ccc(C)cc4)cc3)c(C(N)=O)cn2)C1 [Compound 114, (S)-6-(3-acrylamidopyrrolidin-1-yl)-4-(4-(p-tolyloxy)phenoxy)nicotinamide]",0.1 to 1 µM
12,"C=CC(=O)N1CCN(c2nc(N(C)c3cccc(C)c3)ccc2C(N)=O)CC1 [Compound 158, 2-(4-Acryloyl-piperazin-1-yl)-6-(methyl-m-tolyl-amino)-nicotinamide]",0.1 to 1 µM
13,"C=CC(=O)NCc1cccc(-c2ccc(C(N)=O)c(Oc3ccc(Oc4ccccc4)cc3)n2)c1 [Compound 98, 6-(3-(acrylamidomethyl)phenyl)-2-(4-phenoxyphenoxy)nicotinamide]",1 to 5 µM
14,"C=CC(=O)N1CCC(c2ccc(C(N)=O)c(Nc3ccc(C(=O)N4CCN(C(=O)CCCCNC(=S)Nc5ccc(C6=C7C(C)=CC(C)=[N+]7[B-](F)(F)n7c(C)cc(C)c76)cc5)CC4)cc3)n2)CC1 [Compound 63, 1′-Acryloyl-6-{4-[4-(5-{3-[4-(4,4-difluoro-1,3,5,7-tetramethyl-3a,4alambda4-diaza-4lambda4-bora-s-indacen-8-yl)-phenyl]-thioureido}-pentanoyl)-piperazine-1-carbonyl]-phenylamino}-1′,2′,3′,4′,5′,6′-hexahydro-[2,4′]bipyridinyl-5-carboxylic acid amide]",< 0.1 µM
15,C=CC(=O)N[C@H]1CCN(c2ncc(C#N)c(Nc3ccc(C(=O)NC(C)(C)C)cc3)n2)C1 [Compound 178],< 0.1 µM
16,"C=CC(=O)N[C@@H]1CCCN(c2ccc(C(N)=O)c(Nc3ccc(C(=O)N4CCOCC4)cc3)n2)C1 [Compound 205, (R)-3-Acryloylamino-6′-[4-(morpholine-4-carbonyl)-phenylamino]-3,4,5,6-tetrahydro-2H-[1,2′]bipyridinyl-5′-carboxylic acid amide]",< 0.1 µM
17,"C=CC(=O)N[C@H]1CCN(c2ccc(C(N)=O)c(Nc3ccc(Oc4ccnc(C(=O)NC)c4)cc3)n2)C1 [Compound 36, 6-((S)-3-Acryloylamino-pyrrolidin-1-yl)-2-[4-(2-methylcarbamoyl-pyridin-4-yloxy)-phenylamino]-nicotinamide]",< 0.1 µM
18,"C=CC(=O)N[C@H]1CCN(c2ncc(C(N)=O)cc2-c2ccc(Oc3ccccc3)cc2)C1 [Compound 170, 6-((S)-3-Acryloylamino-pyrrolidin-1-yl)-5-(4-phenoxy-phenyl)-nicotinamide]",> 5 µM
